Assay results reported in the supplement of paper PMC10307832.

Key:
Assay in all cases: relative viability (nuclei count vs DMSO), 5 days (fraction); higher = more cells survive
Tosedostat = compound: CC(C)C[C@@H](C(=O)N[C@H](C(=O)OC1CCCC1)c1ccccc1)[C@H](O)C(=O)NO [Tosedostat]
Method in brief: (§1)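 Five library-drug doses spaced by √10 were pinned onto vehicle-anchored 1536-well plates of lung cancer cell lines that had been kept overnight at 37 °C. Cells went 5 days without medium change, then were fixed, permeabilised and Hoechst-stained together, imaged at 4× and counted by MetaXpress. Viability is the ratio of treated-well to vehicle-well nuclei, taken as a median over plates. Plates required control CV below 25% and at least one doubling.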

[1] = compound: CC1=NN=C(O1)C2=NN=C(C=C2)N3CCC(CC3)OC4=C(C=CC(=C4)F)Cl
Method in brief: as §1

[2] = compound: CC1=NN=C(O1)C2=NN=C(C=C2)N3CCC(CC3)OC4=C(C=CC(=C4)F)Cl + Nc1nc2[nH]cc(CCc3ccc(C(=O)N[C@@H](CCC(=O)O)C(=O)O)cc3)c2c(=O)[nH]1 [Pemetrexed] (partner 0.2 µM)
Method in brief: (§2)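 Lung cancer cell lines were pin-tool dosed in 1536-well plates on the day after seeding, with either a lone drug or a fixed anchor-drug dose plus five library-drug doses (not always all listed) in √10 steps. Nuclei were counted on 4× images after 5 days. Relative viability is the ratio of treated-well to vehicle-well nuclei counts, with each value a median of duplicate plates.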

Tosedostat + Alpelisib = compound: CC(C)C[C@@H](C(=O)N[C@H](C(=O)OC1CCCC1)c1ccccc1)[C@H](O)C(=O)NO [Tosedostat] + Cc1nc(NC(=O)N2CCC[C@H]2C(N)=O)sc1-c1ccnc(C(C)(C)C(F)(F)F)c1 [Alpelisib] (partner 2 µM)
Method in brief: as §2

Row | Cell Line | relative viability (Tosedostat; 0.02 µM) | relative viability (Tosedostat; 0.06325 µM) | relative viability (Tosedostat; 0.2 µM) | relative viability (Tosedostat; 0.6325 µM) | relative viability (Tosedostat; 2 µM) | relative viability ([1]; 0.253 µM) | relative viability ([1]; 0.8 µM) | relative viability ([1]; 2.53 µM) | relative viability ([1]; 8 µM) | relative viability ([2]; first compound 0.253 µM) | relative viability ([2]; first compound 0.8 µM) | relative viability ([2]; first compound 2.53 µM) | relative viability ([2]; first compound 8 µM) | relative viability (Tosedostat + Alpelisib; first compound 0.02 µM) | relative viability (Tosedostat + Alpelisib; first compound 0.06325 µM) | relative viability (Tosedostat + Alpelisib; first compound 0.2 µM) | relative viability (Tosedostat + Alpelisib; first compound 0.6325 µM) | relative viability (Tosedostat + Alpelisib; first compound 2 µM)
1 | 201T | 1 | 1 | 1.02 | 1.06 | 1.01 | 0.481 | 0.523 | 0.553 | 0.503 | 0.314 | 0.255 | 0.316 | 0.339 | 0.967 | 1.08 | 1.07 | 1.21 | 1.15
2 | A549 | 1.05 | 0.945 | 0.922 | 0.929 | 0.815 | 0.69 | 0.611 | 0.575 | 0.541 |  |  |  |  | 0.753 | 0.714 | 0.683 | 0.709 | 0.526
3 | A-427 | 1.04 | 0.955 | 0.992 | 0.941 | 0.908 | 0.904 |  | 0.956 | 0.789 | 1.03 | 0.792 | 0.922 | 0.947 | 1.1 | 1.09 | 1.12 | 1.12 | 0.983
4 | ABC-1 | 1.24 | 0.869 | 0.911 | 0.928 | 0.765 | 0.374 | 0.421 | 0.473 | 0.472 |  |  |  |  | 1.05 | 0.864 | 1.08 | 0.843 | 0.771
5 | BEN | 1.01 | 1.03 | 1.09 | 1.3 | 1.2 | 0.895 | 0.959 | 0.974 | 0.821 | 0.736 | 0.84 | 0.806 | 0.741 | 1.09 | 1.01 | 1.15 | 1.28 | 1.26
6 | CAL-12T | 1.16 | 0.948 | 1.03 | 0.892 | 0.784 | 0.935 | 0.859 | 0.821 | 0.742 | 0.946 | 1.05 | 1.03 | 0.9 | 1.28 | 1.14 | 1.3 | 0.988 | 0.872
7 | COR-L23 | 1.13 | 1 | 0.965 | 1.01 | 1.06 | 0.826 | 0.891 | 0.797 | 0.655 | 0.179 | 0.193 | 0.176 | 0.181 | 0.871 | 0.727 | 0.746 | 0.694 | 0.655
8 | COR-L 105 | 1.03 | 0.906 | 0.81 | 0.784 | 0.697 | 0.902 | 0.956 | 0.989 | 1.07 | 1.2 | 1.07 | 1.18 | 1.29 | 0.904 | 0.849 | 1.17 | 0.901 | 0.753
9 | Calu-6 | 1.08 | 0.925 | 0.928 | 0.831 | 0.733 | 0.673 | 0.682 | 0.694 | 0.61 |  |  |  |  | 1.18 | 0.883 | 0.91 | 0.689 | 0.597
10 | ChaGo-K-1 | 1.07 | 0.975 | 0.969 | 1.02 | 0.771 | 0.736 | 0.681 | 0.687 | 0.671 | 0.245 | 0.265 | 0.248 | 0.266 |  |  |  |  | 
11 | EBC-1 | 0.994 | 0.934 | 0.946 | 0.785 | 0.683 | 0.663 | 0.735 | 0.81 | 0.606 |  |  |  |  | 0.771 | 0.87 | 0.711 | 0.552 | 0.541
12 | IA-LM | 1.07 | 0.963 | 0.918 | 0.858 | 0.769 | 0.169 | 0.142 | 0.171 | 0.155 |  |  |  |  | 0.735 | 0.845 | 0.714 | 0.656 | 0.617
13 | NCI-H522 | 0.908 | 1.01 | 0.897 | 1.05 | 1.01 | 0.964 | 0.933 | 0.957 | 0.955 | 1.02 | 0.947 | 1.14 | 0.959 |  |  |  |  | 
14 | NCI-H727 | 0.914 | 0.899 | 0.696 | 0.819 | 0.95 | 0.817 | 0.728 | 0.981 | 0.785 |  |  |  |  | 0.665 | 0.569 | 0.472 | 0.41 | 0.364
15 | NCI-H1299 | 1.09 | 0.995 | 0.985 | 0.968 | 0.939 | 0.961 | 0.9 | 0.892 | 0.852 |  |  |  |  | 1.13 | 1.02 | 1.03 | 1.03 | 0.906
16 | NCI-H1648 | 1.01 | 0.923 | 0.881 | 0.935 | 0.578 | 0.435 | 0.462 | 0.56 | 0.496 | 0.593 | 0.625 | 0.647 | 0.685 |  |  |  |  | 
17 | NCI-H1650 | 0.895 | 0.85 | 0.94 | 0.911 | 0.98 |  | 0.756 | 0.749 | 0.722 | 0.317 | 0.349 | 0.33 | 0.343 |  |  |  |  | 
18 | NCI-H1703 | 0.995 | 0.789 | 0.763 | 0.572 | 0.726 | 0.786 | 0.873 | 0.933 | 0.829 |  |  |  |  | 0.265 | 0.274 | 0.302 | 0.329 | 0.31
19 | NCI-H2342 | 0.954 | 0.998 | 0.986 | 0.944 | 0.94 | 0.678 | 0.675 | 0.604 | 0.525 | 0.646 | 0.663 | 0.701 | 0.614 |  |  |  |  | 
20 | SW 900 | 0.887 | 0.952 | 0.855 | 0.767 | 0.669 |  | 0.545 | 0.805 | 0.574 |  | 0.444 | 0.486 | 0.449 |  |  |  |  | 
